# From the supplement of paper PMC11451515
# System: SEM cells
# Assay: cell viability relative to DMSO control; higher = less cytotoxic
# Details: 48 h
# In short: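 Viability was expressed as a per-plate percentage of DMSO wells, with cell-free wells as background. Leukemia cells (NOMO1 or SEM at 500 cells/well, P12-Ichikawa at 1000 cells/well) were adapted for at least four passages in each medium and seeded in 1536-well plates (5 μl). Library compounds in DMSO were pin-dosed over an 11-point threefold series from 47 μM to 0.79 nM, and CellTiter-Glo One luminescence was read after 48 h at 37°C.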
# [1] = HPLM + 10% dialyzed FBS, 0.000781 µM
# [2] = HPLM + 10% dialyzed FBS, 0.00234 µM
# [3] = HPLM + 10% dialyzed FBS, 0.00702 µM
# [4] = HPLM + 10% dialyzed FBS, 0.0211 µM
# [5] = HPLM + 10% dialyzed FBS, 0.0632 µM
# [6] = HPLM + 10% dialyzed FBS, 0.19 µM
# [7] = HPLM + 10% dialyzed FBS, 0.569 µM
# [8] = HPLM + 10% dialyzed FBS, 1.71 µM
# [9] = HPLM + 10% dialyzed FBS, 5.12 µM
# [10] = HPLM + 10% dialyzed FBS, 15.4 µM
# [11] = HPLM + 10% dialyzed FBS, 46.1 µM
# [12] = RPMI 5 mM glucose + 10% FBS, 0.000781 µM
# [13] = RPMI 5 mM glucose + 10% FBS, 0.00234 µM
# [14] = RPMI 5 mM glucose + 10% FBS, 0.00702 µM
# [15] = RPMI 5 mM glucose + 10% FBS, 0.0211 µM
# [16] = RPMI 5 mM glucose + 10% FBS, 0.0632 µM
# [17] = RPMI 5 mM glucose + 10% FBS, 0.19 µM
# [18] = RPMI 5 mM glucose + 10% FBS, 0.569 µM
# [19] = RPMI 5 mM glucose + 10% FBS, 1.71 µM
# [20] = RPMI 5 mM glucose + 10% FBS, 5.12 µM
# [21] = RPMI 5 mM glucose + 10% FBS, 15.4 µM
# [22] = RPMI 5 mM glucose + 10% FBS, 46.1 µM
# [23] = RPMI 5 mM glucose + 10% dialyzed FBS, 0.000781 µM
# [24] = RPMI 5 mM glucose + 10% dialyzed FBS, 0.00234 µM
# [25] = RPMI 5 mM glucose + 10% dialyzed FBS, 0.00702 µM
# [26] = RPMI 5 mM glucose + 10% dialyzed FBS, 0.0211 µM
# [27] = RPMI 5 mM glucose + 10% dialyzed FBS, 0.0632 µM
# [28] = RPMI 5 mM glucose + 10% dialyzed FBS, 0.19 µM
# [29] = RPMI 5 mM glucose + 10% dialyzed FBS, 0.569 µM
# [30] = RPMI 5 mM glucose + 10% dialyzed FBS, 1.71 µM
# [31] = RPMI 5 mM glucose + 10% dialyzed FBS, 5.12 µM
# [32] = RPMI 5 mM glucose + 10% dialyzed FBS, 15.4 µM
# [33] = RPMI 5 mM glucose + 10% dialyzed FBS, 46.1 µM
SMILES,cell viability [1] [%],cell viability [2] [%],cell viability [3] [%],cell viability [4] [%],cell viability [5] [%],cell viability [6] [%],cell viability [7] [%],cell viability [8] [%],cell viability [9] [%],cell viability [10] [%],cell viability [11] [%],cell viability [12] [%],cell viability [13] [%],cell viability [14] [%],cell viability [15] [%],cell viability [16] [%],cell viability [17] [%],cell viability [18] [%],cell viability [19] [%],cell viability [20] [%],cell viability [21] [%],cell viability [22] [%],cell viability [23] [%],cell viability [24] [%],cell viability [25] [%],cell viability [26] [%],cell viability [27] [%],cell viability [28] [%],cell viability [29] [%],cell viability [30] [%],cell viability [31] [%],cell viability [32] [%],cell viability [33] [%]
CC(C)c1ccc2c(c1)c(SC(C)(C)C)c(CC(C)(C)C(=O)[O-])n2Cc1ccc(Cl)cc1,104,96.6,107,100,106,95.3,103,101,106,107,83.2,101,84,109,99.7,96.9,102,89.9,101,93.5,89.5,75,98.9,103,106,107,97.6,104,91.6,88.5,92.5,97.5,89.9
CN[C@@H](C)[C@H]1[C@H](O)C[C@@]2(C)[C@@H]3CC[C@H]4C(C)(C)[C@@H](NC)CC[C@@]45C[C@@]35CC[C@]12C,73.4,83.6,53.9,85.5,90.1,95.8,83.2,98.4,42.5,93.4,66.3,81.8,83.2,56,95.2,82.7,83.3,109,68.9,40,100,103,72.7,75.4,66.4,83.4,87.3,99.2,109,93.9,44.3,99.4,89.8
Cc1c(C)n(Cc2ccc(-c3ccccc3C(=O)O)cc2)c2ccc(C(=O)N[C@@H](C)c3ccc([N+](=O)[O-])cc3)cc12,106,101,117,105,107,105,116,110,108,109,119,109,109,115,112,118,119,118,124,120,121,110,99.2,117,115,112,116,127,120,117,115,115,106
C[C@@H](Oc1cc(-c2cnn(C3CCNCC3)c2)cnc1N)c1c(Cl)ccc(F)c1Cl,105,121,123,124,121,114,111,110,61.6,35.1,23.5,81.4,78.5,85.6,83.6,82.5,71.3,83.4,77.3,58.4,29.5,13.6,112,124,114,114,97.1,113,120,116,91.5,33.3,28.3
COc1cc(OC2CCN(C)CC2)ccc1Nc1ncc2c(n1)n(C1CCCC1)c(=O)n2C,63.8,87.5,78.2,69.4,77.3,99,97.3,64.7,59,25.6,2.44,87.4,80.4,79.3,81.1,99,90.1,83.2,67.4,76.1,20.7,2.73,74.2,88.5,71.9,75.4,78.3,96.1,84.4,55.4,67.7,26.6,2.25
Clc1ccc(-c2nc3sccn3c2/C=N/OCc2ccc(Cl)c(Cl)c2)cc1,127,122,101,119,124,111,115,88.5,100,101,117,,,,,,,,,,,,131,122,111,137,120,134,135,104,113,110,115
O=C1c2ccccc2-[n+]2ccc3c([nH]c4ccccc43)c21,91,89.3,102,77.2,70.7,73.6,68,55.8,19.6,3.74,2.58,116,109,102,92.1,78.2,92.7,85.7,59.6,32.3,3.62,2.81,92.7,98,91.9,80.2,87.4,84.9,65.4,58.1,32.6,3.56,2.5
C[C@](Cc1c[nH]c2ccccc12)(NC(=O)OC1C2CC3CC(C2)CC1C3)C(=O)NC[C@H](NC(=O)CCC(=O)O)c1ccccc1 (some centres undefined),88.1,87.3,112,106,124,129,121,123,116,126,120,96.8,82.8,110,121,105,149,148,135,128,125,132,113,91,121,126,118,137,134,142,136,168,123
C[C@@]12C(=O)OC(=O)[C@@]1(C)C1CCC2O1,118,103,112,112,114,107,112,95.1,87.1,6.65,4.55,105,113,112,112,112,110,124,104,73.1,5.81,4.32,120,116,110,124,120,113,114,96.8,58.2,6.57,4.36
Cc1onc(-c2ccccc2Cl)c1C(=O)N[C@@H]1C(=O)N2[C@@H]1SC(C)(C)[C@@H]2C(=O)[O-],82.3,77.1,89.4,97.7,72,88.2,83.5,81.7,80.2,84.8,90,117,110,117,109,101,102,83.8,116,110,99.4,85.7,102,110,119,115,107,115,96.3,113,99.9,104,108
NC1=C(Cl)C(=CC=N1)OC2=C(F)C=C(NC(=O)\C3=C\N\C=C(C3=O)\C4=CC=C(F)C=C4)C=C2,118,107,121,72.2,92.6,72.6,64.4,64,58.8,64.1,11.5,129,113,115,79.2,76,70.5,65.3,76.2,49,46.7,3.66,140,103,115,65.7,60,57.7,59.1,59.5,57.9,58.5,4.6
C[C@]12CC[C@@H]3c4ccc(O)cc4CC[C@H]3[C@@H]1[C@@H](O)[C@@H](O)[C@@H]2O,104,119,112,115,116,127,123,86,125,99.9,84.1,87.8,125,110,82,102,88.5,94.2,80,99,99.4,38.8,101,110,120,118,121,132,126,90,129,103,64.5
CC1=C(C)C(=O)C(C(CCCCCC(=O)O)c2ccccc2)=C(C)C1=O (centres undefined),63.6,70.7,56.2,69.2,65.6,78.1,71.6,64.6,59.7,44.7,41,77.4,92,73.4,79.9,75.1,77.4,59,57.3,35.1,26.7,31.9,54.8,74.5,57.1,69.9,75.2,97.2,58.6,76.6,46.5,48.6,24.9
CCOC(=O)[C@@H](N)Cc1ccc(-c2cc(O[C@H](c3ccc(Cl)cc3-n3ccc(C)n3)C(F)(F)F)nc(N)n2)cc1.O=C(O)CNC(=O)c1ccccc1,100,129,93.3,133,127,107,126,125,115,110,45.1,96.4,112,82.2,110,114,103,98.6,113,97.1,115,17.1,106,132,111,118,102,119,120,111,109,117,24
CC(C)(O)CC[C@@H](O)[C@](C)(O)[C@H]1CC[C@@]2(O)C/3=C/C(=O)[C@@H]4C[C@@H](O)[C@@H](O)C[C@]4(C)[C@H]3CC[C@]12C,115,107,112,97.8,97.5,110,99.7,103,93.5,89.7,94.7,96.3,93.8,98.3,93.4,102,98.8,85.2,97.7,96.4,87,79.8,104,106,103,80.2,81.7,92.8,77.3,104,83.4,94.2,74.6
